Patent US20230372407A1, “METHODS FOR MODULATING TLR4 SIGNALING” (President and Fellows of Harvard College, priority 2020, published 2023)
Where two headings read alike, the source gives them in different places.

Legend:
ISG expression [1] = assay: ISG expression in spleen (qRT-PCR); format: in vivo, mouse
ISG expression [2] = assay: ISG expression in mesenteric lymph nodes (qRT-PCR); format: in vivo, mouse
TLR4 = format: cell-based, mouse
Ifnb1 expression = Ifnb1 expression by lamina propria DCs (qRT-PCR); format: in vivo, mouse; conditions: WT SPF mice, 150 ug oral gavage, 1.5 hrs
Protocol: To confirm the relevance of these findings in vivo, Ifnb1 expression by colon LP DCs was analyzed in WT SPF mice administered 150 ug of PSA by oral gavage.
RNA was isolated from whole tissues or the DC^+ and DC^− fractions of spleens, mLNs, and colons following manufacturer's instructions with the RNeasy mini kit (Qiagen). cDNA was prepared with the Quantitect Reverse Transcription Kit (Qiagen). qRT-PCR was performed on a QuantStudio7 Flex or Pro Real-Time PCR system (Applied Biosystems) with RT^2 SYBR Green ROX qPCR Mastermix (Qiagen). Amplification was achieved using an initial cycle of 95° C. for 10 min, followed by 40 cycles of 95° C. for 15 s and 60° C. for 1 min. Gene expression was normalized using Actb as a reference gene. The forward (f) and reverse (r) primers used to detect expression of the corresponding murine genes were as follows (SEQ ID NOs: 1-20, respectively):
Single-cell suspensions of the indicated tissues were prepared as described. DC positive and negative fractions were isolated with mouse pan-DC microbeads (Miltenyi), following the manufacturer's protocol.
GFWT C57BL/6 mice were administered B. fragilis strain NCTC 9343 or C. ramosum strain AO31 by oral gavage [200 uL, approximately 10^8-10^9 colony-forming units (CFU) per mouse]. […]

Human specimens = Human specimens response to PSA; format: cell-based
ISG expression [3] = assay: ISG / BST2 expression in BMDCs (qRT-PCR, flow cytometry); format: cell-based, mouse
[4] = Mouse autoimmune disease model; format: in vivo; conditions: dependent on IFN-I signaling; data not shown
IAV/PR8-GFP = format: cell-based, mouse
CD4+ T cells = format: cell-based; conditions: data not shown
VSV-GFP = format: cell-based, mouse
CD4+FOXP3+ Tregs = assay: Human colon biopsy cLP lymphocytes, IL-10 production by CD4+FOXP3+ Tregs; format: cell-based; conditions: total cLP lymphocytes from human colon biopsies, 6-10 days
Protocol: FIG. 13. PSA induces Tregs in cells obtained from human gut tissue biopsies. Total cLP lymphocytes from 8-10 human colon biopsies were treated with PBS, WT-OMV, DPSA-OMV, or purified PSA for 6-10 days. IL-10 production by CD4+FOXP3+ Tregs was assessed by flow cytometry and intracellular cytokine staining. ** p<0.01, One-way ANOVA. Error bars represent mean +S.E.M.

VSV strain Indiana = conditions: mouse, in vivo, po
[5] = WT SPF mice + metronidazole 7 days (Table 4)
[6] = WT SPF mice + metronidazole 7 days (Table 3)

With `Cc1ncc([N+](=O)[O-])n1CCO` [metronidazole] the “Ifit1 Spleen fold difference gene expression to WT SPF, Mean” value (ISG expression [1]; [5]) was 0.57 fold, the “Ifit2 Spleen fold difference gene expression to WT SPF, Mean” value (ISG expression [1]; [5]) was 0.69 fold and the “Ifit3 Spleen fold difference gene expression to WT SPF, Mean” value (ISG expression [1]; [5]) was 0.76 fold. For the same molecule, the “Irf7 Spleen fold difference gene expression to WT SPF, Mean” value (ISG expression [1]; [5]) was 0.68 fold, the “Mx1 Spleen fold difference gene expression to WT SPF, Mean” value (ISG expression [1]; [5]) was 0.78 fold and the “Oas/2 Spleen fold difference gene expression to WT SPF, Mean” value (ISG expression [1]; [5]) was 0.74 fold. For the same molecule, the “Rsad2 Spleen fold difference gene expression to WT SPF, Mean” value (ISG expression [1]; [5]) was 0.46 fold, the “ISG expression in spleen (panel)” value (ISG expression [1]; WT mice vs WT SPF) was “significant decreases in ISG expression” and the “Ifit1 mLN fold difference gene expression to WT SPF, Mean” value (ISG expression [2]; [6]) was 0.57 fold. The “Ifit2 mLN fold difference gene expression to WT SPF, Mean” value (ISG expression [2]; [6]) was 0.69 fold, the “Ifit3 mLN fold difference gene expression to WT SPF, Mean” value (ISG expression [2]; [6]) was 0.76 fold and the “Irf7 mLN fold difference gene expression to WT SPF, Mean” value (ISG expression [2]; [6]) was 0.68 fold. The “Mx1 mLN fold difference gene expression to WT SPF, Mean” value (ISG expression [2]; [6]) was 0.78 fold, the “Oas/2 mLN fold difference gene expression to WT SPF, Mean” value (ISG expression [2]; [6]) was 0.74 fold and the “Rsad2 mLN fold difference gene expression to WT SPF, Mean” value (ISG expression [2]; [6]) was 0.46 fold. For the same molecule, the “ISG expression in mLN (panel)” value (ISG expression [2]; WT mice vs WT SPF) was “significant decreases in ISG expression”.
With lipooligosaccharide [LOS] the “IFNβ secretion by BMDCs” value (TLR4; Tlr4−/− BMDCs vs WT) was “through TLR4” and the “IFNβ secretion by BMDCs” value (TLR4; WT BMDCs) was “dose-dependent manner”.
With polysaccharide A [PSA] the “Ifnb1 expression by colon LP DCs” value (Ifnb1 expression) was “significant increase”, the “response of human specimens” value (Human specimens) was “dose-dependent manner” and the “Surface BST2 levels” value (ISG expression [3]; Ifnar1−/− and Ifnb1−/− BMDCs vs WT) was “significantly reduced”. For the same molecule, the “expression of a panel of ISGs” value (ISG expression [3]; WT BMDCs, 24 hrs, 50 ug/mL, vs vehicle) was “increase in expression”, the “BST2 mean fluorescence intensity (MFI)” value (ISG expression [3]; WT BMDCs, 24 hrs, 100 ug/mL, vs vehicle) was “increased” and the “protective effects in a mouse autoimmune disease model” value [4] was “protective effects”. The “IFNβ secretion by BMDCs” value (TLR4; Myd88−/− BMDCs, 50 ug/mL, 6 hrs) was “significant decrease”, the “IFNβ secretion by BMDCs” value (TLR4; Tlr2−/− BMDCs vs WT, 50 ug/mL, 6 hrs) was “no effect” and the “IFNβ secretion by BMDCs” value (TLR4; Tlr4−/− BMDCs vs WT) was “completely lost the ability to secrete IFNβ”. For the same molecule, the “IFNβ secretion by BMDCs” value (TLR4; Trif−/− BMDCs, 50 ug/mL, 6 hrs) was “lack of increased IFNβ secretion”, the “IFNβ secretion by BMDCs” value (TLR4; WT BMDCs) was “significantly induced” and the “IFNβ secretion by BMDCs” value (TLR4; dectin-1 deficient (Clec7a−/−) BMDCs vs WT, 50 ug/mL, 6 hrs) was “no effect”. The “antiviral effect against IAV/PR8-GFP” value (IAV/PR8-GFP) was “completely abrogated”, the cell viability (IAV/PR8-GFP) was “increase in cell viability” and the “percentage of infected cells” value (IAV/PR8-GFP) was “significant reduction”. For the same molecule, the “IL-10 secretion by CD4+ T cells” value (CD4+ T cells) was “enhance IL-10 secretion”, the “Protection from VSV-GFP infection” value (VSV-GFP) was “completely lost” and the cell viability (VSV-GFP) was “increased cell viability”. For the same molecule, the “percentage of infected (GFP+) cells” value (VSV-GFP) was “inhibited virus infection in a dose-dependent manner”, the “IL-10 production by CD4+FOXP3+ Tregs” value (CD4+FOXP3+ Tregs) was “induces Tregs” and the “daily and cumulative paralysis scores” value (VSV strain Indiana) was “decreased”. For the same molecule, the incidence of disease (VSV strain Indiana) was “decreased” and the survival (VSV strain Indiana) was “enhanced survival”.
